A short description of series [1]: Corrosion rate by LPR sweep, copper coupons in synthetic water, 50° C., 1 ppm free chlorine after 0.5 hrs (Examples 1 and 2). The conditions noted are these: for corrosion inhibition properties over the entire 18 hour period (in words) / corrosion resistance when free chlorine was added (in words): Example 2. The method, then:
(§1) One liter samples of synthetic water were each dosed with the compositions in Table 1.
(§2) The apparatus used for the corrosion testing was a Gamry Multiport Corrosion Cell and Gamry Reference 600+potentiostat with multiplexor. Copper coupons (CDA110) were added to the sample cells containing neutral water (pH 7.5), and the cells were dosed with 50 ppm of scale inhibitor (co-polymer and 2-phosphonobutane-1,2,4-yricarboxylic acid) and heated to 50° C. and maintained at this temperature throughout the testing. The cells were continuously stirred at a speed of 350 rpm. A cylindrical working electrode was submerged into the test solutions, and an LPR sweep (linear polarization resistance) was performed every hour for 18 hours. After the 0.5 hrs mark, 1 ppm of free chlorine was dosed into the corrosion cell.
(§3) One liter samples of the synthetic water described above with respect to Example 1 were each dosed with the compositions in Table 5 and processed under conditions similar to Example 1.

Series [2] in a line: Cl2 demand in the corrosion cell test (Examples 1 and 2). The series is classed as physicochemical. The method, then: as §1, §2, §3

The text below walks through data of patent US20250270707A1, “NON-TRIAZOLE IMIDAZOLINE AND AMIDE COMPOUNDS AND METHODS FOR INHIBITING CORROSION IN INDUSTRIAL WATER TREATMENT” (CHEMTREAT, INC., priority 2023, published 2025).

Take `CCCCCCCC(=O)NCCN(CCOCCC(=O)[O-])CCC(=O)[O-].[Na+].[Na+]` [DCADPP, Disodium Capryloamphodipropionate]: in series [1] (2 ppm), the “CR Average (10-18 hrs)” value came out at 0.304 mpy. For the same compound, the “CR Peak” value in series [1] (2 ppm) is reported as 2.169 mpy. Also, the corrosion rate in series [1] (2 ppm, 0 hrs) is 0.0293 mpy; in series [1] (2 ppm, 1 hrs) it was 2.1690 mpy; in series [1] (2 ppm, 2 hrs), 1.4770 mpy; in series [1] (2 ppm, 3 hrs) it was 1.3090 mpy; in series [1] (2 ppm, 4 hrs) it was 0.6705 mpy; in series [1] (2 ppm, 5 hrs) it was 0.6007 mpy. Moreover, the corrosion rate turned out to be 0.6353 mpy in series [1] (2 ppm, 6 hrs); 0.5403 mpy in series [1] (2 ppm, 7 hrs); 0.4352 mpy in series [1] (2 ppm, 8 hrs); 0.3962 mpy in series [1] (2 ppm, 9 hrs); 0.3671 mpy in series [1] (2 ppm, 10 hrs); 0.3426 mpy in series [1] (2 ppm, 11 hrs). The corrosion rate in series [1] (2 ppm, 12 hrs) was 0.3293 mpy; in series [1] (2 ppm, 13 hrs), 0.3130 mpy; in series [1] (2 ppm, 14 hrs) it was 0.2994 mpy; in series [1] (2 ppm, 15 hrs) it was 0.2826 mpy; in series [1] (2 ppm, 16 hrs), 0.2749 mpy; in series [1] (2 ppm, 17 hrs) it was 0.2691 mpy. The corrosion rate in series [1] (2 ppm, 18 hrs) was 0.2604 mpy. In addition, in series [1] (2 ppm), the “corrosion inhibition properties over the entire 18 hour period (in words)” value is listed as “inferior corrosion inhibition properties”. Besides, the “corrosion resistance when free chlorine was added (in words)” value in series [1] (2 ppm) is on record as “substantial deterioration in corrosion resistance”. Moreover, the “Cl2 Demand” value in series [2] (2 ppm) amounted to 1.0 mg/L.

Regarding `CCCCCCCC(=O)NCCN(CCOCC(=O)[O-])CC(=O)[O-].[Na+].[Na+]` [DCyADAA, Disodium Capryloamphodiacetate], the “CR Average (10-18 hrs)” value in series [1] (2 ppm) is listed as 0.271 mpy. Further, the “CR Peak” value in series [1] (2 ppm) was 2.854 mpy. The corrosion rate is recorded as 0.0230 mpy in series [1] (2 ppm, 0 hrs); 2.8540 mpy in series [1] (2 ppm, 1 hrs); 1.5850 mpy in series [1] (2 ppm, 2 hrs); 1.3860 mpy in series [1] (2 ppm, 3 hrs); 0.5261 mpy in series [1] (2 ppm, 4 hrs); 0.6207 mpy in series [1] (2 ppm, 5 hrs). Besides, the corrosion rate in series [1] (2 ppm, 6 hrs) was 0.5852 mpy; in series [1] (2 ppm, 7 hrs), 0.4766 mpy; in series [1] (2 ppm, 8 hrs) it was 0.4185 mpy; in series [1] (2 ppm, 9 hrs) it was 0.3747 mpy; in series [1] (2 ppm, 10 hrs), 0.3416 mpy; in series [1] (2 ppm, 11 hrs) it was 0.3181 mpy. For the same compound, the corrosion rate is listed as 0.2953 mpy in series [1] (2 ppm, 12 hrs); 0.2800 mpy in series [1] (2 ppm, 13 hrs); 0.2681 mpy in series [1] (2 ppm, 14 hrs); 0.2352 mpy in series [1] (2 ppm, 15 hrs); 0.2411 mpy in series [1] (2 ppm, 16 hrs); 0.2394 mpy in series [1] (2 ppm, 17 hrs). In addition, the corrosion rate in series [1] (2 ppm, 18 hrs) is reported as 0.2217 mpy. Further, in series [1] (2 ppm), the “corrosion inhibition properties over the entire 18 hour period (in words)” value was “inferior corrosion inhibition properties”. For the same compound, the “corrosion resistance when free chlorine was added (in words)” value in series [1] (2 ppm) is “substantial deterioration in corrosion resistance”. In addition, in series [2] (2 ppm), the “Cl2 Demand” value is reported as 1.1 mg/L.

In the case of `CCCCCCCCCCCC(=O)NCCN(CCOCC(=O)[O-])CC(=O)[O-].[Na+].[Na+]` [DLADAA, Disodium Lauroamphodiacetate], the “CR Average (10-18 hrs)” value in series [1] (2 ppm) is given as 0.036 mpy. The “CR Peak” value in series [1] (2 ppm) is 0.392 mpy. Moreover, the corrosion rate worked out at 0.0175 mpy in series [1] (2 ppm, 0 hrs); 0.3923 mpy in series [1] (2 ppm, 1 hrs); 0.3065 mpy in series [1] (2 ppm, 2 hrs); 0.2159 mpy in series [1] (2 ppm, 3 hrs); 0.1420 mpy in series [1] (2 ppm, 4 hrs); 0.1385 mpy in series [1] (2 ppm, 5 hrs). Further, the corrosion rate in series [1] (2 ppm, 6 hrs) is on record as 0.1059 mpy; in series [1] (2 ppm, 7 hrs), 0.0894 mpy; in series [1] (2 ppm, 8 hrs) it was 0.0705 mpy; in series [1] (2 ppm, 9 hrs), 0.0631 mpy; in series [1] (2 ppm, 10 hrs), 0.0512 mpy; in series [1] (2 ppm, 11 hrs) it was 0.0461 mpy. For the same compound, the corrosion rate stood at 0.0419 mpy in series [1] (2 ppm, 12 hrs); 0.0378 mpy in series [1] (2 ppm, 13 hrs); 0.0347 mpy in series [1] (2 ppm, 14 hrs); 0.0304 mpy in series [1] (2 ppm, 15 hrs); 0.0282 mpy in series [1] (2 ppm, 16 hrs); 0.0262 mpy in series [1] (2 ppm, 17 hrs). Besides, in series [1] (2 ppm, 18 hrs), the corrosion rate came out at 0.0242 mpy. Moreover, the “corrosion inhibition properties over the entire 18 hour period (in words)” value in series [1] (2 ppm) is listed as “good corrosion inhibition properties”. The “Cl2 Demand” value in series [2] (2 ppm) stood at 0.7 mg/L.

Take `O=C([O-])C(O)[C@H](O)[C@@H](O)[C@H](O)[C@H](O)CO.[Na+]` (stereo partly drawn) [Glucoheptonate, NaGlucoheptonate, reference compound]: in series [1] (5 ppm), the “CR Average (10-18 hrs)” value worked out at 0.278 mpy. The “CR Peak” value in series [1] (5 ppm) came to 2.670 mpy. Moreover, the corrosion rate in series [1] (5 ppm, 0 hrs) came to 0.074 mpy; in series [1] (5 ppm, 1 hrs) it was 2.670 mpy; in series [1] (5 ppm, 2 hrs), 2.004 mpy; in series [1] (5 ppm, 3 hrs) it was 1.238 mpy; in series [1] (5 ppm, 4 hrs) it was 0.784 mpy; in series [1] (5 ppm, 5 hrs), 0.536 mpy. The corrosion rate in series [1] (5 ppm, 6 hrs) was found to be 0.504 mpy; in series [1] (5 ppm, 7 hrs), 0.449 mpy; in series [1] (5 ppm, 8 hrs) it was 0.357 mpy; in series [1] (5 ppm, 9 hrs) it was 0.331 mpy; in series [1] (5 ppm, 10 hrs), 0.311 mpy; in series [1] (5 ppm, 11 hrs) it was 0.297 mpy. In addition, the corrosion rate in series [1] (5 ppm, 12 hrs) is listed as 0.288 mpy; in series [1] (5 ppm, 13 hrs), 0.280 mpy; in series [1] (5 ppm, 14 hrs), 0.274 mpy; in series [1] (5 ppm, 15 hrs) it was 0.269 mpy; in series [1] (5 ppm, 16 hrs), 0.267 mpy; in series [1] (5 ppm, 17 hrs), 0.260 mpy. For the same compound, in series [1] (5 ppm, 18 hrs), the corrosion rate was 0.257 mpy. Besides, the “Cl2 Demand” value in series [2] (5 ppm) was 0.5 mg/L.

Turning to `CCCCCCCCCCCCN(CCC(=O)[O-])CCC(=O)O.[Na+]` [SL, Sodium Lauriminodipropionate, reference compound], in series [1] (2 ppm), the “CR Average (10-18 hrs)” value was found to be 0.067 mpy. The “CR Peak” value in series [1] (2 ppm) is listed as 0.932 mpy. Moreover, the corrosion rate in series [1] (2 ppm, 0 hrs) came to 0.0368 mpy; in series [1] (2 ppm, 1 hrs) it was 0.9317 mpy; in series [1] (2 ppm, 2 hrs), 0.4889 mpy; in series [1] (2 ppm, 3 hrs) it was 0.3498 mpy; in series [1] (2 ppm, 4 hrs), 0.2185 mpy; in series [1] (2 ppm, 5 hrs), 0.1644 mpy. Moreover, the corrosion rate is reported as 0.1286 mpy in series [1] (2 ppm, 6 hrs); 0.1128 mpy in series [1] (2 ppm, 7 hrs); 0.0992 mpy in series [1] (2 ppm, 8 hrs); 0.0910 mpy in series [1] (2 ppm, 9 hrs); 0.0854 mpy in series [1] (2 ppm, 10 hrs); 0.0779 mpy in series [1] (2 ppm, 11 hrs). Also, the corrosion rate in series [1] (2 ppm, 12 hrs) was 0.0757 mpy; in series [1] (2 ppm, 13 hrs), 0.0685 mpy; in series [1] (2 ppm, 14 hrs) it was 0.0643 mpy; in series [1] (2 ppm, 15 hrs), 0.0613 mpy; in series [1] (2 ppm, 16 hrs), 0.0580 mpy; in series [1] (2 ppm, 17 hrs), 0.0543 mpy. This compound also displayed a corrosion rate in series [1] (2 ppm, 18 hrs) of 0.0536 mpy. Also, the “corrosion inhibition properties over the entire 18 hour period (in words)” value in series [1] (2 ppm) is reported as “did not perform well”. Moreover, the “Cl2 Demand” value in series [2] (2 ppm) is recorded as 0.7 mg/L.

For the compound `CCCCCCCCCCCCCCCCCCN(C(=O)CC(C(=O)[O-])S(=O)(=O)[O-])C(CC(=O)[O-])C(=O)[O-].[Na+].[Na+].[Na+].[Na+]` (stereo not drawn) [TDSS, Tetrasodium Dicarboxyethyl Stearyl Sulfosuccinamate, reference compound], the “CR Average (10-18 hrs)” value in series [1] (7 ppm) amounted to 0.141 mpy. The “CR Peak” value in series [1] (7 ppm) is reported as 0.243 mpy. Further, the corrosion rate is reported as 0.0149 mpy in series [1] (7 ppm, 0 hrs); 0.1875 mpy in series [1] (7 ppm, 1 hrs); 0.2432 mpy in series [1] (7 ppm, 2 hrs); 0.2313 mpy in series [1] (7 ppm, 3 hrs); 0.1839 mpy in series [1] (7 ppm, 4 hrs); 0.1611 mpy in series [1] (7 ppm, 5 hrs). Further, the corrosion rate in series [1] (7 ppm, 6 hrs) was 0.1349 mpy; in series [1] (7 ppm, 7 hrs), 0.1387 mpy; in series [1] (7 ppm, 8 hrs), 0.1304 mpy; in series [1] (7 ppm, 9 hrs), 0.1291 mpy; in series [1] (7 ppm, 10 hrs) it was 0.1381 mpy; in series [1] (7 ppm, 11 hrs), 0.1431 mpy. Moreover, the corrosion rate in series [1] (7 ppm, 12 hrs) amounted to 0.1363 mpy; in series [1] (7 ppm, 13 hrs), 0.1485 mpy; in series [1] (7 ppm, 14 hrs), 0.1371 mpy; in series [1] (7 ppm, 15 hrs) it was 0.1428 mpy; in series [1] (7 ppm, 16 hrs), 0.1422 mpy; in series [1] (7 ppm, 17 hrs), 0.1375 mpy. Further, the corrosion rate in series [1] (7 ppm, 18 hrs) was 0.1422 mpy. The “Cl2 Demand” value in series [2] (7 ppm) is reported as 0.8 mg/L.
